Measured values as given in ChEMBL document CHEMBL3991601, “The target landscape of clinical kinase drugs” (Science, 2017).
Values belong to the compound of their own block, whether it stands above or below them. Activity calls are given as the source filed them.

Tests used:
[1] = molecular target: ALK tyrosine kinase receptor (Homo sapiens, UniProt Q9UM73); type: subcellular, K-562, COLO 205, SK-N-BE(2) and MV-4-11, Cell lysate; conditions: read-out: Kd apparent
[2] = molecular target: Serine/threonine-protein kinase 38-like (Homo sapiens, UniProt Q9Y2H1)
[3] = molecular target: Nucleoside diphosphate kinase B (Homo sapiens, UniProt P22392)
[4] = molecular target: Putative nucleoside diphosphate kinase (Homo sapiens, UniProt O60361)
[5] = molecular target: T1, Dual specificity mitogen-activated protein kinase kinase 4 (Homo sapiens, UniProt P45985)
T1 sequence (P45985 whole entry): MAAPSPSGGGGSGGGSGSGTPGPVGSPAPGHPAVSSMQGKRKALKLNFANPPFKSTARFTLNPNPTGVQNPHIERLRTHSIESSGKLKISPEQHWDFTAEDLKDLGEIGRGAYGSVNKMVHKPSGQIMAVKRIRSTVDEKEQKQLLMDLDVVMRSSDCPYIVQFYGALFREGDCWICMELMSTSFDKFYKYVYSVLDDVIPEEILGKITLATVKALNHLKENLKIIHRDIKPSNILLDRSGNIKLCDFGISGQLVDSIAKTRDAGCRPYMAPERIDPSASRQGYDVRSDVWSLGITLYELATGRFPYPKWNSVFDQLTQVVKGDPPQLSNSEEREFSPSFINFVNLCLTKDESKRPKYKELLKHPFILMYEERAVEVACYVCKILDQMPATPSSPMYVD

[6] = molecular target: Activin receptor type-1-like (Homo sapiens, UniProt P37023)
[7] = molecular target: Ras-related C3 botulinum toxin substrate 1 (Homo sapiens, UniProt P63000)
[8] = molecular target: Tyrosine-protein kinase Fgr (Homo sapiens, UniProt P09769)
[9] = molecular target: 5'-AMP-activated protein kinase subunit gamma-1 (Homo sapiens, UniProt P54619)
[10] = molecular target: 5'-AMP-activated protein kinase subunit gamma-2 (Homo sapiens, UniProt Q9UGJ0)
[11] = molecular target: T2, General transcription and DNA repair factor IIH helicase subunit XPD (Homo sapiens, UniProt P18074)
T2 sequence (P18074 whole entry): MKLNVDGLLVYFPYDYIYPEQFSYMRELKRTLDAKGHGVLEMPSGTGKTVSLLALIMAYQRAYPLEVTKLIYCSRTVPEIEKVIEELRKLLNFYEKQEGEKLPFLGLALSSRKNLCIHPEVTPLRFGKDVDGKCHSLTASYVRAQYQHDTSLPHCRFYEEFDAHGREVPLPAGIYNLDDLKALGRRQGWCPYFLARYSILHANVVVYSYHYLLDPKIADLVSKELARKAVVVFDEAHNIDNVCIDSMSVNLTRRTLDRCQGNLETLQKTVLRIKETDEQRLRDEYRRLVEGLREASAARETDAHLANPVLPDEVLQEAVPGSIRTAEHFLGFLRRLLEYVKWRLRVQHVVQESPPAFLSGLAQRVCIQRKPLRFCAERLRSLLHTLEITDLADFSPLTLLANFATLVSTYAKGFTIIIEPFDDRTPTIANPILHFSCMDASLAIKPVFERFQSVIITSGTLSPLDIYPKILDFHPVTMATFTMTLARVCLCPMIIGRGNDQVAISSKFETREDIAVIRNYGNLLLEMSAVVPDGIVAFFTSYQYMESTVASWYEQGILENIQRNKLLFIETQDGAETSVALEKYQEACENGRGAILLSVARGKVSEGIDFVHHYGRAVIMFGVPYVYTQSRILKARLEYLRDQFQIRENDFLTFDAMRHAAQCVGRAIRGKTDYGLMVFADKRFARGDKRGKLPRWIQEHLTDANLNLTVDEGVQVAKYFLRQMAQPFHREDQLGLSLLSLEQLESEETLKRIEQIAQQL

[12] = molecular target: T3, Uncharacterized protein FLJ45252 (Homo sapiens, UniProt Q6ZSR9)
T3 sequence (Q6ZSR9 whole entry): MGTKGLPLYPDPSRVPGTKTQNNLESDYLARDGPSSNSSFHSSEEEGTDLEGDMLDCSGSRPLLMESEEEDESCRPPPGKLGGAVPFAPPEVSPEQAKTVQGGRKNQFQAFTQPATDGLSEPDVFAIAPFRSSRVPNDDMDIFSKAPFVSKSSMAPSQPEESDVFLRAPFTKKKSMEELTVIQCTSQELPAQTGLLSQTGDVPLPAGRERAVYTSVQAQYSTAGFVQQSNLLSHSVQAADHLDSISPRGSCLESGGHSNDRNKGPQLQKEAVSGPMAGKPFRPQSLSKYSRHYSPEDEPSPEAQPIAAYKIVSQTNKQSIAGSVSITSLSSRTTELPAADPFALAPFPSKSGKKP

[13] = molecular target: Dual specificity tyrosine-phosphorylation-regulated kinase 1B (Homo sapiens, UniProt Q9Y463)
[14] = molecular target: Cyclin-dependent kinase 18 (Homo sapiens, UniProt Q07002)
[15] = molecular target: Tyrosine-protein kinase JAK2 (Homo sapiens, UniProt O60674)
Also: in the data inactive means no Kd found up to 30 µM.

Cyclin-dependent kinase 18, sequence (Q07002 whole entry): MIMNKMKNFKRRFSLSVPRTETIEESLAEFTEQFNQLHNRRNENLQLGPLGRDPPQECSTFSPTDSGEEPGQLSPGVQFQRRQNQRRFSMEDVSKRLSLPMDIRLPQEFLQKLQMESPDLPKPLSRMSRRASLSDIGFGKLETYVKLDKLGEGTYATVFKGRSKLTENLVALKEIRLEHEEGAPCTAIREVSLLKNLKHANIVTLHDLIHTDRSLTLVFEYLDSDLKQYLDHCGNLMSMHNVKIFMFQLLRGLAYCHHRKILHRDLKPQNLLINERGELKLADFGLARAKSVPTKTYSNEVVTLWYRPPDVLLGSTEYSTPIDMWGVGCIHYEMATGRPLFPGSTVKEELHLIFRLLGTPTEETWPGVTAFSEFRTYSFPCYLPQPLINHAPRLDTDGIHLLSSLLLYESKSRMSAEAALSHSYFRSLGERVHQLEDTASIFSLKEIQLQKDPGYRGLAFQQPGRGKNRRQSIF
ALK tyrosine kinase receptor, sequence (Q9UM73 whole entry): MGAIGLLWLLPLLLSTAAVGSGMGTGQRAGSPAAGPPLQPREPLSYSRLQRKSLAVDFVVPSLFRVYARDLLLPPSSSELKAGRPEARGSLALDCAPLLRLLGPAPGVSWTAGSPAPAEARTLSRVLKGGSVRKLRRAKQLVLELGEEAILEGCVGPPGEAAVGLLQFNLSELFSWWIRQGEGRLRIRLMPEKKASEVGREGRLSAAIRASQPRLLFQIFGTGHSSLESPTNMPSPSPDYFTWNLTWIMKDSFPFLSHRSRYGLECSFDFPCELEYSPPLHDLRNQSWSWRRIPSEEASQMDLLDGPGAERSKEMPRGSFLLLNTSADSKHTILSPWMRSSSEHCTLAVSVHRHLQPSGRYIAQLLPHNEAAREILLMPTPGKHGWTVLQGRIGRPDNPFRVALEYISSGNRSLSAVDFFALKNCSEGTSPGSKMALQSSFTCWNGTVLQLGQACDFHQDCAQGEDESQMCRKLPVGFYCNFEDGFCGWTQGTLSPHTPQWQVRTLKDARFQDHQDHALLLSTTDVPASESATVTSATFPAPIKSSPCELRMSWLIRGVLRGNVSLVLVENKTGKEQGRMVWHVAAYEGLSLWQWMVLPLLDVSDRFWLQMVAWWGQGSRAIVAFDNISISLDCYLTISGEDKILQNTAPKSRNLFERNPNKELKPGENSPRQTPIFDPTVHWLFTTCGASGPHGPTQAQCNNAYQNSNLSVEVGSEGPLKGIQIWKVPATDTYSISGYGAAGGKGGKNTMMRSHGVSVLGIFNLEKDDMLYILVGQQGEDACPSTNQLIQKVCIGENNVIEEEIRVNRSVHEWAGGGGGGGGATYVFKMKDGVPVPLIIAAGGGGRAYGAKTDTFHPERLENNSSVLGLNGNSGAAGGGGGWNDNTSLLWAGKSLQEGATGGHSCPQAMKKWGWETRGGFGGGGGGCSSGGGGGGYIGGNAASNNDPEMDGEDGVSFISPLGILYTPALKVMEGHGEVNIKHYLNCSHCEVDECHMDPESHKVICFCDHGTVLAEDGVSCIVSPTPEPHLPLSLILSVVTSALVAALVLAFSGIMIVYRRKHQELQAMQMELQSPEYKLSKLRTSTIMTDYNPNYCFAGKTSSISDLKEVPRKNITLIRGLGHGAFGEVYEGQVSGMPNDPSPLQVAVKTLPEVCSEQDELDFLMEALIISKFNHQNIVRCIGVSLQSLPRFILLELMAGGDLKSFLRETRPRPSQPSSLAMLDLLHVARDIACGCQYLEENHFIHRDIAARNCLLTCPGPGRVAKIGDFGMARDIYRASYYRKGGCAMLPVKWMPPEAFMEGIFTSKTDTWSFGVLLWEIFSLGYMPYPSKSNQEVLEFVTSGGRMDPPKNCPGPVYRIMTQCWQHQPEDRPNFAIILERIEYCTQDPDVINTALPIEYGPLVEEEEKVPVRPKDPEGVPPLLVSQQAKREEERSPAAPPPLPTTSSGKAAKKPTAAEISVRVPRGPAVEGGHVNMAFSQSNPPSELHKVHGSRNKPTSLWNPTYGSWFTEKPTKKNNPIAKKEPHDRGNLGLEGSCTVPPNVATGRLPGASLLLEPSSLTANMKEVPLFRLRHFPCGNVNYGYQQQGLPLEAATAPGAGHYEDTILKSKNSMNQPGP
Dual specificity tyrosine-phosphorylation-regulated kinase 1B, sequence (Q9Y463 whole entry): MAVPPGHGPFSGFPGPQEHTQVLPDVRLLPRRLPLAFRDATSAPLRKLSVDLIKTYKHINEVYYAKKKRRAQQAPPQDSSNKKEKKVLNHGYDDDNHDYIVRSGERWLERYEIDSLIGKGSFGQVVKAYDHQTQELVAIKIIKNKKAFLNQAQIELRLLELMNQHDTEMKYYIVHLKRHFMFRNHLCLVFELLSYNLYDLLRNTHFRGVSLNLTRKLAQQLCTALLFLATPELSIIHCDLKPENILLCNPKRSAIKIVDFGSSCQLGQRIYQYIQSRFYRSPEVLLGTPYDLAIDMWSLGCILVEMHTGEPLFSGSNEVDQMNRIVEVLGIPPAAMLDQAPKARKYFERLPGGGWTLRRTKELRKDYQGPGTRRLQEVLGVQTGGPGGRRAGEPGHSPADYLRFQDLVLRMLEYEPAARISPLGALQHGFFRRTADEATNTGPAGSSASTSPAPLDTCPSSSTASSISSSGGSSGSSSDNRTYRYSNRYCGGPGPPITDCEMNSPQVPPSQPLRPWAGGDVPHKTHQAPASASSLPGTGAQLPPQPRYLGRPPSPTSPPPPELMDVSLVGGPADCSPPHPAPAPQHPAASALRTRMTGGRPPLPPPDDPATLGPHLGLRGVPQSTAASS
Activin receptor type-1-like, sequence (P37023 whole entry): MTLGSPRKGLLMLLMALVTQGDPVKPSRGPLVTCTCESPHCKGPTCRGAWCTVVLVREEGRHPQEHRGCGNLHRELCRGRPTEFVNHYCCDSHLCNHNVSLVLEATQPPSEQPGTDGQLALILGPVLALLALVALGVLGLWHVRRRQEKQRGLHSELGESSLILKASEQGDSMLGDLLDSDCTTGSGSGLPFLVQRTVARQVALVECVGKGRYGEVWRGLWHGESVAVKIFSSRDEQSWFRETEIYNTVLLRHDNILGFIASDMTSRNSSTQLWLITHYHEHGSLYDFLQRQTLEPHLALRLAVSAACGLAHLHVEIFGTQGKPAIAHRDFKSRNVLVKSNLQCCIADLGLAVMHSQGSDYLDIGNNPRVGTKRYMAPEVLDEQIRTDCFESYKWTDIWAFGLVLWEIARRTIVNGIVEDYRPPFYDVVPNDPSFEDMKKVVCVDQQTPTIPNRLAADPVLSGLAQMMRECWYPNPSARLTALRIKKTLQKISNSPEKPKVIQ
Tyrosine-protein kinase JAK2, sequence (O60674 whole entry): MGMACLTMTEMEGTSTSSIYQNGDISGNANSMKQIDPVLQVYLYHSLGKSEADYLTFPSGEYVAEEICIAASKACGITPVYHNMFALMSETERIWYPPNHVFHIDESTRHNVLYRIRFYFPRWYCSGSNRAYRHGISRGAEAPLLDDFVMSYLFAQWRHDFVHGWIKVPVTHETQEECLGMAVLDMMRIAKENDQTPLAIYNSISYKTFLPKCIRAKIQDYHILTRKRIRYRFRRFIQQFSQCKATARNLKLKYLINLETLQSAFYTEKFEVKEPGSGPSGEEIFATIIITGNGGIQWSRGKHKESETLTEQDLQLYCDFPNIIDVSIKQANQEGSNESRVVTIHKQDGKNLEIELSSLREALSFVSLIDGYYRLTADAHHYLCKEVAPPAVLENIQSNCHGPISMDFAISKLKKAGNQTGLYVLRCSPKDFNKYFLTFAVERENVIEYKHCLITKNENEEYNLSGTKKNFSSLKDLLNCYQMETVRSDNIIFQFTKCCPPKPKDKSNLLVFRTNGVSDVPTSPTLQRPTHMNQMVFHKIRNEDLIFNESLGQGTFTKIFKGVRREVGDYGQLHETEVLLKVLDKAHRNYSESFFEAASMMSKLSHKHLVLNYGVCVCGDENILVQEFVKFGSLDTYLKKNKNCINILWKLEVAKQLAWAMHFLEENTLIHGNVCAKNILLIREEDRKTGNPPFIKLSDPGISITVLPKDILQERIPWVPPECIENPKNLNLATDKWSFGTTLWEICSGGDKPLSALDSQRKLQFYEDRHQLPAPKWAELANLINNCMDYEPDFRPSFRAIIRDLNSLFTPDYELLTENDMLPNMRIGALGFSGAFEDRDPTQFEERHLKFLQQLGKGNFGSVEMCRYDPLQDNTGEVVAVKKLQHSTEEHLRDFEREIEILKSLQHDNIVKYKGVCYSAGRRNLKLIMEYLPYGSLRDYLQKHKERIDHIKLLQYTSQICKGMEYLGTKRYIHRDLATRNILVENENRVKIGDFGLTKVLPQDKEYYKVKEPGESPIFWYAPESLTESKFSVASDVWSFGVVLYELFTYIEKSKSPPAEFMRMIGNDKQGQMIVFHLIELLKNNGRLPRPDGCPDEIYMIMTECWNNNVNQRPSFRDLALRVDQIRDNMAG
Nucleoside diphosphate kinase B, sequence (P22392 whole entry): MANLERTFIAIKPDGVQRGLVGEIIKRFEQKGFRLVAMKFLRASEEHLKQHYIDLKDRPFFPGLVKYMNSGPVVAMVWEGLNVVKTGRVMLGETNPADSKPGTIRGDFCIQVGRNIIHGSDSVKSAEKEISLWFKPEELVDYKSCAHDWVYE
Serine/threonine-protein kinase 38-like, sequence (Q9Y2H1 whole entry): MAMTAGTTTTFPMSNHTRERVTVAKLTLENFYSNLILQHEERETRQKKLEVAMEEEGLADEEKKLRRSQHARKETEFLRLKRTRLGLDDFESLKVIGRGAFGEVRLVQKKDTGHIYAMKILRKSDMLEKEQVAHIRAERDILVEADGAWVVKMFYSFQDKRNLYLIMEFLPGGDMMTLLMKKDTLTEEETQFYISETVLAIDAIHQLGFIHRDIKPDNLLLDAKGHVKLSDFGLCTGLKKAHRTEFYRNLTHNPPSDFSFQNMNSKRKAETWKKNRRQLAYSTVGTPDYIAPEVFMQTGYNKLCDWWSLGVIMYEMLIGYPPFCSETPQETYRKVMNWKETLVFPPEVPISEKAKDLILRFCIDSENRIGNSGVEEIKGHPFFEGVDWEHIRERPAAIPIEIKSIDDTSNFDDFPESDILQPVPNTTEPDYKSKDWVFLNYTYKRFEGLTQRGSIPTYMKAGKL

SMILES: Cc1c(NC(=O)OC[C@@H]2COCCN2)cn2ncnc(Nc3ccc4c(cnn4Cc4cccc(F)c4)c3)c12 [AC-480]
Kd [6]: > 30 µM (inactive)

SMILES: CN(c1ncccc1CNc1nc(Nc2ccc3c(c2)CC(=O)N3)ncc1C(F)(F)F)S(C)(=O)=O [PF-00562271]
Kd [3]: > 30 µM (inactive)
Kd [4]: 0.862 µM

SMILES: C[C@]1(O)C[C@@H](c2nc(-c3ccc4ccc(-c5ccccc5)nc4c3)c3c(N)nccn32)C1 [LINSITINIB]
Kd [6]: > 30 µM (inactive)
Kd [5]: > 30 µM (inactive)

SMILES: NC[C@@](O)(c1ccc(Cl)cc1)c1ccc(-c2cn[nH]c2)cc1 [AT-13148]
Kd [7]: > 30 µM (inactive)
Kd [8]: > 30 µM (inactive)

SMILES: COc1cc(F)c(F)c(Nc2ccc(I)cc2F)c1NS(=O)(=O)C1(C[C@H](O)CO)CC1 [REFAMETINIB]
Kd [2]: > 30 µM (inactive)
Kd [7]: > 30 µM (inactive)

SMILES: COc1cc2c(Oc3ccc4[nH]c(C)cc4c3F)ncnc2cc1OCCCN1CCCC1 [CEDIRANIB]
Kd [9]: > 30 µM (inactive)
Kd [10]: > 30 µM (inactive)
Kd [11]: > 30 µM (inactive)
Kd [12]: > 30 µM (inactive)

SMILES: CN1CCN(c2nc(C3=C(c4c[nH]c5ccccc45)C(=O)NC3=O)c3ccccc3n2)CC1 [SOTRASTAURIN]
Kd [1]: > 30 µM (inactive)
Kd [2]: > 30 µM (inactive)
Kd [7]: > 30 µM (inactive)

SMILES: CNC(=O)c1ccc(Nc2ncc(C(F)(F)F)c(NCc3nccnc3N(C)S(C)(=O)=O)n2)cc1 [DEFACTINIB]
Kd [13]: > 30 µM (inactive)
Kd [14]: > 30 µM (inactive)

SMILES: CCc1nc(C(N)=O)c(Nc2ccc(N3CCC(N4CCN(C)CC4)CC3)c(OC)c2)nc1NC1CCOCC1 [GILTERITINIB]
Kd [7]: > 30 µM (inactive)

SMILES: FC(F)(F)c1ccc(CNc2ccc(Cc3c[nH]c4ncc(Cl)cc34)cn2)cn1 [PEXIDARTINIB]
Kd [9]: > 30 µM (inactive)
Kd [1]: > 30 µM (inactive)
Kd [2]: > 30 µM (inactive)
Kd [10]: > 30 µM (inactive)
Kd [11]: > 30 µM (inactive)
Kd [12]: 1.45 µM (active)

SMILES: CCc1cc2c(cc1N1CCC(N3CCOCC3)CC1)C(C)(C)c1[nH]c3cc(C#N)ccc3c1C2=O [ALECTINIB]
Kd [13]: > 30 µM (inactive)
Kd [14]: > 30 µM (inactive)
Kd [8]: > 30 µM (inactive)

SMILES: O=C(NOC[C@H](O)CO)c1ccc(F)c(F)c1Nc1ccc(I)cc1F [MIRDAMETINIB]
Kd [6]: > 30 µM (inactive)
Kd [15]: > 30 µM (inactive)
Kd [5]: > 30 µM (inactive)
Kd [8]: > 30 µM (inactive)

SMILES: CNC(=O)c1cccc(-c2ccc3c(N4CCOC[C@@H]4C)nc(N4CCOC[C@@H]4C)nc3n2)c1 [VISTUSERTIB]
Kd [6]: > 30 µM (inactive)
Kd [2]: > 30 µM (inactive)
Kd [15]: > 30 µM (inactive)
Kd [13]: > 30 µM (inactive)
Kd [8]: > 30 µM (inactive)

SMILES: O=S(=O)(c1cccc2cnccc12)N1CCCNCC1 [FASUDIL]
Kd [7]: > 30 µM (inactive)
Kd [8]: > 30 µM (inactive)

SMILES: C=CC(=O)Nc1cc(Nc2nccc(-c3cn(C)c4ccccc34)n2)c(OC)cc1N(C)CCN(C)C [OSIMERTINIB]
Kd [9]: > 30 µM (inactive)
Kd [3]: > 30 µM (inactive)
Kd [4]: > 30 µM (inactive)
Kd [10]: > 30 µM (inactive)
Kd [11]: > 30 µM (inactive)
Kd [12]: > 30 µM (inactive)

SMILES: Cc1c(Cn2c(C)nc3c(C(=O)O)cc(N4CCOCC4)cc32)cccc1C(F)(F)F [GSK-2636771]
Kd [7]: > 30 µM (inactive)
Kd [5]: > 30 µM (inactive)
Kd [14]: > 30 µM (inactive)

SMILES: C#Cc1cccc(Nc2ncnc3cc4c(cc23)OCCOCCOCCO4)c1 [ICOTINIB]
Kd [13]: > 30 µM (inactive)
Kd [5]: > 30 µM (inactive)
Kd [14]: > 30 µM (inactive)
Kd [8]: > 30 µM (inactive)

Continued, values first:

Kd [1]: 0.002 µM
Kd [2]: > 30 µM (inactive)
Kd [3]: > 30 µM (inactive)
Kd [4]: > 30 µM (inactive)
Kd [5]: > 30 µM (inactive)
SMILES: NC(=O)c1ccc(N(C(N)=O)c2c(F)cccc2F)nc1-c1ccc(F)cc1F [VX-702]

Kd [3]: > 30 µM (inactive)
Kd [15]: > 30 µM (inactive)
Kd [5]: > 30 µM (inactive)
SMILES: Cn1c(=O)c(F)c(Nc2ccc(I)cc2F)c2c(=O)n(C[C@@H](O)CO)cnc21 [TAK-733]

Kd [9]: > 30 µM (inactive)
Kd [2]: > 30 µM (inactive)
Kd [11]: > 30 µM (inactive)
Kd [12]: > 30 µM (inactive)
SMILES: CCOc1ccn(-c2ccc(F)cc2)c(=O)c1C(=O)Nc1ccc(Oc2ccnc(N)c2Cl)c(F)c1 [BMS-777607]

Kd [5]: > 30 µM (inactive)
Kd [14]: > 30 µM (inactive)
SMILES: CC(C)(O)CC(=O)NCCn1ccc2ncnc(Nc3ccc(Oc4cccc(C(F)(F)F)c4)c(Cl)c3)c21 [TAK-285]

Kd [14]: > 30 µM (inactive)
Kd [8]: > 30 µM (inactive)
SMILES: O=C(Nc1ccc(OC(F)(F)F)cc1)c1sccc1NCc1ccnc2ccccc12 [OSI-930]

Kd [6]: > 30 µM (inactive)
Kd [2]: > 30 µM (inactive)
Kd [15]: > 30 µM (inactive)
Kd [13]: > 30 µM (inactive)
Kd [5]: > 30 µM (inactive)
Kd [8]: > 30 µM (inactive)
SMILES: COc1ccc2c(OCc3nnc4ccc(-c5ccccc5)nn34)ccnc2c1 [AMG-208]
